# Earlier results, collected in patent US6830897B2, “High throughput screen for reducing drug candidate attrition” (Pfizer Inc., priority 2000, dated 2004).
# Settings: toxicities linked to formation of reactive metabolites; literature reference in brackets
row,Compound,Toxicity (Ref.)
1,COc1ccc(O)cc1 [4-hydroxyanisole],Hepato- toxicity (15)
2,CC(C)c1ccc(O)cc1 [4-isopropylphenol],"Circulatory collapse, death (16)"
3,CC(=O)Nc1ccc(O)cc1 [Acetaminophen],Hepato- toxicity (11)
4,NC(=O)N1c2ccccc2C=Cc2ccccc21 [Carbamazepine],Hyper- sensitivity (13)
5,CN1CCN(C2=Nc3cc(Cl)ccc3Nc3ccccc32)CC1 [Clozapine],Neutrophil Cyto-toxicity (12)
6,COc1ccc2c(c1)c(CC(=O)O)c(C)n2C(=O)c1ccc(Cl)cc1 [Indomethacin],Neutrophil toxicity (14)
7,O=C1NC(=O)C(c2ccccc2)(c2ccccc2)N1 [Phenytoin],Hepato- toxicity (18)
8,CCCC(CCC)C(=O)O [Valproic acid],Hepato- toxicity (17)
9,Cc1cccc(O)c1 [m-Cresol],"Circulatory collapse, death (16)"
